Assays:
[1] = cited from earlier work
[2] = rats; cited from earlier work
[3] = tested on: Caco-2 cell monolayer; experiment: in vitro; type: in vitro ADME; conditions: human, Caco-2, 90 min
In short: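 Permeability measured in both directions across 19-day Caco-2 layers with TEER above 600 […], incubated at 37° C without shaking; donor and receiver sampled at 10 and 90 min for LC/MS/MS. Derived values: Papp (cm/s), efflux ratio, recovery.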

In the case of `CCC(CC)COC(=O)[C@H](C)N[P@](=O)(OC[C@H]1O[C@@](C#N)(c2ccc3c(N)ncnn23)[C@H](O)[C@@H]1O)Oc1ccccc1` [remdesivir, Remdesivir], the “T1/2 (hydrolysis by esterases)” value ([1]; in vivo, iv) is given as “about 1 hr”.

For `N#C[C@@]1(c2ccc3c(N)ncnn23)O[C@H](CO)[C@@H](O)[C@H]1O` [GS-441524], the “% F (oral bioavailability)” value [2] is given as 4.8% and the T½ in plasma ([1]; plasma, following IV administration) is given as “about 24.5 hr”.

In the case of `N#C[C@@]1(c2ccc3c(NC(=O)[C@@H](N)Cc4ccc(F)cc4)ncnn23)O[C@H](CO)[C@@H](O)[C@H]1O` [Compound 84, (S)-2-amino-N-(7-((2R,3R,4S,5R)-2-cyano-3,4-dihydroxy-5-(hydroxymethyl)tetrahydrofuran-2-yl)pyrrolo[2,1-f][1,2,4]triazin-4-yl)-3-(4-fluorophenyl)propenamide], the “Papp, A-B” value [3] is reported as 0 ×10⁻⁶ cm/s and the “Papp, B-A” value [3] is reported as 0 ×10⁻⁶ cm/s.

— patent US12102648B2, “Orally-bioavailable nucleoside analogs” (priority 2021, dated 2024)
